In brackets after ≈: the same amount, converted by molar mass. Activity calls are given as the source filed them. The calls are words filed in the database; no cut-off is given here.
Key:
[1] = Inhibition of quorum sensing system in Chromobacterium violaceum CV026 assessed as reduction in violacein production incubated for 24 hrs
[2] = Inhibition of quorum sensing system in Chromobacterium violaceum CV026 assessed as reduction in violacein production at 1 mg/ml incubated for 24 hrs relative to control

Compound | IC50 [1] | also measured
CCCC/C=C/[N+]([O-])=N/[C@H](C)[C@@H](C)O | 0.12 mg/mL (≈ 599 µM) | –
CCCC/C=C/[N+]([O-])=N/[C@H](C)[C@H](O)CC(=O)OC | – | inhibition [2]: 40%
CCCC/C=C/[N+]([O-])=N/C(C)C(O)C(N)=O (stereo not given) | 0.5 mg/mL (≈ 2180 µM) | –
CCCC(O)/C=C/[N+]([O-])=N/C(C)C(C)O (stereo not given) | – | inhibition [1]: Active
CCCC/C=C/[N+]([O-])=N/[C@H](C)[C@H](C)O | 0.12 mg/mL (≈ 599 µM) | –
